Reference: ChEMBL document CHEMBL1153635, “Identification of [4-[4-(methylsulfonyl)phenyl]-6-(trifluoromethyl)-2-pyrimidinyl] amines and ethers as potent and selective cyclooxygenase-2 inhibitors” (Bioorg Med Chem Lett, 2009)
Activity calls are given as the source filed them.

Columns and labels:
[1] = target: T1, Prostaglandin G/H synthase 1 (Homo sapiens, UniProt P23219); assay: biochemical; format: cell-based, COS
COS = assay: Selectivity ratio of IC50 for human COX1 to IC50 for human COX2 expressed in african green monkey COS cells; format: cell-based
[2] = target: T2, Prostaglandin G/H synthase 2 (Homo sapiens, UniProt P35354); format: cell-based, COS
T2 sequence (P35354 whole entry): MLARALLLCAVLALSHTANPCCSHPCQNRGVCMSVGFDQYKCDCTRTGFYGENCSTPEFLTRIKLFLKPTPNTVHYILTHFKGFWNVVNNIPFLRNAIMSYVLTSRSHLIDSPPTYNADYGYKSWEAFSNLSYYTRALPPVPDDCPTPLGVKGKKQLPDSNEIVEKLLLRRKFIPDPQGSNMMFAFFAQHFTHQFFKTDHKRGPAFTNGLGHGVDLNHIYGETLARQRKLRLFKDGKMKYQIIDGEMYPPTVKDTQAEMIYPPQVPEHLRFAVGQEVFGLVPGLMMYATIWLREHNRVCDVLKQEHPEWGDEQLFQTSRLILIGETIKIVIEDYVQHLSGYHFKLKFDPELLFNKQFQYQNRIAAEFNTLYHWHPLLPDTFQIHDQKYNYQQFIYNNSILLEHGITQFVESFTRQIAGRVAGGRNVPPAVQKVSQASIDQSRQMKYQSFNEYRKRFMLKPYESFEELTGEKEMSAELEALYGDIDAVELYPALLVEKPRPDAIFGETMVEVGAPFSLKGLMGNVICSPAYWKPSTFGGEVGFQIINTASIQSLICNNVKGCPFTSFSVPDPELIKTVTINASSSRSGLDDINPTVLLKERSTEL

[3] = Selectivity ratio of IC50 for human COX1 to IC50 for human COX2 expressed in baculovirus-infected SF9 cells
[4] = target: T2, Prostaglandin G/H synthase 2; assay: biochemical; format: cell-based, Sf9
[5] = target: T1, Prostaglandin G/H synthase 1; assay: biochemical; format: cell-based, Sf9
[6] = target: T1, Prostaglandin G/H synthase 1; format: tissue-based, Blood
[7] = Volume of distribution at steady state in rat at 1 mg/kg/hr, iv; format: ADME, organism-based; parameters: route intravenous; details: in vivo, read-out: Vdss
[8] = target: T2, Prostaglandin G/H synthase 2; format: tissue-based, Blood
Description: Inhibition of COX2 in human whole blood assessed as inhibition of lipopolysaccharide-stimulated PGE2 production after 24 hrs by enzyme immunoassay

Homo sapiens = species on record: Homo sapiens; assay: Selectivity ratio of IC50 for COX1 to IC50 for COX2 in human whole blood; format: tissue-based
[9] = Terminal half life in rat at 1 mg/kg/hr, iv; format: ADME, organism-based; parameters: route intravenous; details: in vivo, read-out: beta t1/2 (converted)
Rattus norvegicus [10] = species on record: Rattus norvegicus; assay: Analgesic activity against Freund's adjuvant-induced pain in rat model of acute inflammatory pain assessed as reversal of adjuvant hypersensitivity; format: functional
[11] = Oral bioavailability in rat at 5 mg/kg; format: ADME, organism-based; details: in vivo
[12] = Blood clearance in rat at 1 mg/kg/hr, iv; format: ADME, organism-based; parameters: route intravenous; details: whole blood
Rattus norvegicus [13] = assay: Antihyperalgesic activity against chronic constriction nerve injury-induced hyperalgesia in rat assessed as reversal of decrease in the paw withdrawal threshold at 5 mg/kg, po bid for 10 days measured on day 10 postdose; format: functional, organism-based; parameters: dose 5 mg/kg
in vivo = details: rat, brain / blood
Description: Ratio of drug level in brain to blood in rat

Rattus norvegicus [14] = assay: Antihyperalgesic activity against chronic constriction nerve injury-induced hyperalgesia in rat assessed as reversal of decrease in the paw withdrawal threshold at 5 mg/kg, po bid for 10 days measured on day 3 postdose; format: functional, organism-based; parameters: dose 5 mg/kg
Rattus norvegicus [15] = assay: Antihyperalgesic activity against chronic constriction nerve injury-induced hyperalgesia in rat assessed as reversal of decrease in the paw withdrawal threshold at 5 mg/kg, po bid for 10 days measured on day 7 postdose; format: functional, organism-based; parameters: dose 5 mg/kg
[16] = Oral bioavailability in rat at 1 mg/kg; format: ADME, organism-based; details: in vivo

T1 sequence (P23219 whole entry): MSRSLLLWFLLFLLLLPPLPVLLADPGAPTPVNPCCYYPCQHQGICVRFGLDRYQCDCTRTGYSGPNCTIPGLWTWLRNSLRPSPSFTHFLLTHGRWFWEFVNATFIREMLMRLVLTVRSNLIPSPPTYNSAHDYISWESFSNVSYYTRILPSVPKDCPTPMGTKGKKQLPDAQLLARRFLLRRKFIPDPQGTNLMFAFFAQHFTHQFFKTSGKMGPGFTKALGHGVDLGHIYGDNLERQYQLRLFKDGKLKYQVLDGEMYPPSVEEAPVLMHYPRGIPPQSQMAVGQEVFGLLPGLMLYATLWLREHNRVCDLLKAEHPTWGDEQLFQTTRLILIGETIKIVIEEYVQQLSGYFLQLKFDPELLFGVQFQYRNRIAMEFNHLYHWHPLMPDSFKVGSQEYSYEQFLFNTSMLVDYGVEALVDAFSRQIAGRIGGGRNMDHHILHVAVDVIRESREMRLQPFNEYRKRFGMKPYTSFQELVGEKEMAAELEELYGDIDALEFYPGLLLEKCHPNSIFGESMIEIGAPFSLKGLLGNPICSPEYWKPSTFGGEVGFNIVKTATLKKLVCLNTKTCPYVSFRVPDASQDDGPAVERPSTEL

Row | Structure (SMILES) | IC50 [1] | IC50 [2] | Ratio IC50 (COS) | also measured
1 | Cc1ccc(N(C)c2nc(-c3ccc(S(C)(=O)=O)cc3)cc(C(F)(F)F)n2)cc1 | > 74.2 µM | 3 nM | > 24700 | –
2 | CS(=O)(=O)c1ccc(-c2cc(C(F)(F)F)nc(OC3CCCCCC3)n2)cc1 | – | – | – | Ratio IC50 [3]: > 192; IC50 [4]: < 10 nM; IC50 [5]: 1.92 µM
3 | Cc1ccc(-c2ncc(Cl)cc2-c2ccc(S(C)(=O)=O)cc2)cn1 [ETORICOXIB] | – | – | – | IC50 [6]: > 100 µM
4 | CS(=O)(=O)c1ccc(-c2cc(C(F)(F)F)nc(OCC3CCCCC3)n2)cc1 | – | – | – | Ratio IC50 [3]: > 2220; IC50 [4]: 45 nM; IC50 [5]: > 100 µM
5 | CS(=O)(=O)c1ccc(-c2cc(C(F)(F)F)nc(OC3CCCCCCC3)n2)cc1 | – | – | – | Ratio IC50 [3]: > 300; IC50 [4]: < 10 nM; IC50 [5]: 3 µM
6 | CC(C)(C)Oc1nc(-c2ccc(S(C)(=O)=O)cc2)cc(C(F)(F)F)n1 | – | – | – | Ratio IC50 [3]: 1580; IC50 [4]: 33 nM; IC50 [5]: 52 µM
7 | CS(=O)(=O)c1ccc(-c2cc(C(F)(F)F)nc(OC3CCC3)n2)cc1 | – | – | – | Ratio IC50 [3]: > 1900; IC50 [4]: < 10 nM; IC50 [5]: 19 µM
8 | CCCCOc1nc(-c2ccc(S(C)(=O)=O)cc2)cc(C(F)(F)F)n1 | – | – | – | Vd [7]: 5.7 L/kg; IC50 [4]: 21.5 nM; Activity (Rattus norvegicus [13]): Active; IC50 [8]: 158 nM; Kp (in vivo): 3.2; Activity (Rattus norvegicus [14]): Active; half-life [9]: 252 min; ED50 (Rattus norvegicus [10]): 2.1 mg/kg; Activity (Rattus norvegicus [15]): Active; bioavailability [16]: 84%; clearance [12]: 24 mL/min/kg
9 | Cc1cnc(NC2CCCCC2)nc1-c1ccc(S(C)(=O)=O)cc1 | > 100 µM | > 10000 nM | inactive | –
10 | CS(=O)(=O)c1ccc(-c2cc(C(F)(F)F)nc(OCC3CCCCCC3)n2)cc1 | – | – | – | Ratio IC50 [3]: inactive; IC50 [4]: 1030 nM
11 | CS(=O)(=O)c1ccc(-c2cc(C(F)(F)F)nc(OC3CCCC3)n2)cc1 | – | – | – | Ratio IC50 [3]: > 404; IC50 [4]: < 10 nM; IC50 [5]: 4.04 µM
12 | CS(=O)(=O)c1ccc(-c2cc(C(F)(F)F)nc(NC3CCCCC3)n2)cc1 | > 58.4 µM | – | > 117000 | IC50 [8]: 62 nM; Ratio IC50 (Homo sapiens): 187; IC50 [6]: 11.6 µM
13 | CS(=O)(=O)c1ccc(-c2cc(C(F)(F)F)nc(NCC3CCOCC3)n2)cc1 | 100 µM | 5 nM | 20000 | –
14 | CC(C)Oc1nc(-c2ccc(S(C)(=O)=O)cc2)cc(C(F)(F)F)n1 | – | – | – | Ratio IC50 [3]: 834; IC50 [4]: 63 nM; IC50 [5]: 52.6 µM
15 | Cc1ccc(Oc2nc(-c3ccc(S(C)(=O)=O)cc3)cc(C(F)(F)F)n2)cc1 | – | – | – | Ratio IC50 [3]: > 375
16 | CS(=O)(=O)c1ccc(C2=C(c3ccccc3)C(=O)OC2)cc1 [ROFECOXIB] | – | – | – | Kp (in vivo): 0.8
17 | CS(=O)(=O)c1ccc(-c2ccnc(NC3CCCCC3)n2)cc1 | > 100 µM | > 10000 nM | inactive | –
18 | Cc1cccc(Oc2nc(-c3ccc(S(C)(=O)=O)cc3)cc(C(F)(F)F)n2)c1 | – | – | – | Ratio IC50 [3]: > 436; IC50 [4]: < 10 nM; IC50 [5]: 4.36 µM
19 | CCCCNc1nc(-c2ccc(S(C)(=O)=O)cc2)cc(C(F)(F)F)n1 | > 100 µM | 1.3 nM | > 76900 | IC50 [8]: 70 nM; Ratio IC50 (Homo sapiens): > 1370; IC50 [6]: > 96.2 µM
20 | CS(=O)(=O)c1ccc(-c2cc(C(F)(F)F)nc(NCC3CCCCC3)n2)cc1 | > 100 µM | 29 nM | > 3450 | –

Continued, in another order:

Row | IC50 [1] | IC50 [2] | Structure (SMILES) | Ratio IC50 (COS) | also measured
21 | > 100 µM | > 10000 nM | Cc1c(-c2ccc(S(C)(=O)=O)cc2)nc(NC2CCCCC2)nc1C(F)(F)F | inactive | –
22 | > 100 µM | 1680 nM | Cc1cc(-c2ccc(S(C)(=O)=O)cc2)nc(NC2CCCCC2)n1 | > 59 | –
23 | > 100 µM | > 10000 nM | CS(=O)(=O)c1ccc(-c2cc(C(F)(F)F)nc(NC3CCNCC3)n2)cc1 | inactive | –
24 | > 100 µM | > 10000 nM | CS(=O)(=O)c1ccc(-c2cc(N)nc(NC3CCCCC3)n2)cc1 | inactive | –
25 | 0.167 µM | 2.4 nM | NS(=O)(=O)c1ccc(-c2cc(C(F)(F)F)nc(NC3CCCCC3)n2)cc1 | 69.5 | –
26 | > 66.2 µM | 2 nM | CC(C)CNc1nc(-c2ccc(S(C)(=O)=O)cc2)cc(C(F)(F)F)n1 | > 33100 | Ratio IC50 [3]: > 8330; Vd [7]: 6 L/kg; IC50 [4]: 12 nM; IC50 [5]: > 100 µM; IC50 [8]: 206 nM; Ratio IC50 (Homo sapiens): 301; IC50 [6]: 62 µM; half-life [9]: 540 min; ED50 (Rattus norvegicus [10]): 0.5 mg/kg; bioavailability [11]: 107%; clearance [12]: 10 mL/min/kg
27 | 0.7 µM | < 1.4 nM | CCCCNc1nc(-c2ccc(S(N)(=O)=O)cc2)cc(C(F)(F)F)n1 | > 500 | –
28 | > 100 µM | 5.6 nM | CS(=O)(=O)c1ccc(-c2cc(C(F)(F)F)nc(Nc3ccccc3)n2)cc1 | > 17900 | –
29 | > 100 µM | 5 nM | CCCNc1nc(-c2ccc(S(C)(=O)=O)cc2)cc(C(F)(F)F)n1 | > 2000 | –
30 | > 100 µM | – | CS(=O)(=O)c1ccc(-c2cc(C(F)(F)F)nc(NCc3ccccc3)n2)cc1 | > 400000 | IC50 [8]: 8 nM; Ratio IC50 (Homo sapiens): 4910; IC50 [6]: 39.3 µM
31 | > 65.8 µM | 7.2 nM | CS(=O)(=O)c1ccc(-c2cc(C(F)(F)F)nc(Nc3ccc(F)cc3)n2)cc1 | > 9140 | –
32 | > 100 µM | < 10 nM | Cc1ccc(CNc2nc(-c3ccc(S(C)(=O)=O)cc3)cc(C(F)(F)F)n2)cc1 | > 10000 | –
33 | > 100 µM | > 10000 nM | CS(=O)(=O)c1ccc(-c2cc(C(=O)O)nc(NC3CCCCC3)n2)cc1 | inactive | –
34 | > 100 µM | 272 nM | CS(=O)(=O)c1ccc(-c2cc(C(F)(F)F)nc(N)n2)cc1 | > 368 | –
35 | 6.32 µM | 16 nM | CS(=O)(=O)c1ccc(-c2cc(OCC(F)(F)F)nc(NC3CCCCC3)n2)cc1 | 395 | –
36 | > 100 µM | 11 nM | Cc1ccc(Nc2nc(-c3ccc(S(C)(=O)=O)cc3)cc(C(F)(F)F)n2)cc1 | > 9090 | –
37 | > 100 µM | > 10000 nM | CS(=O)(=O)c1ccc(-c2cc(C(N)=O)nc(NC3CCCCC3)n2)cc1 | inactive | –
38 | > 91.6 µM | – | CS(=O)(=O)c1ccc(-c2cc(C(F)(F)F)nc(NC3CCOCC3)n2)cc1 | > 5090 | –
